The values that follow come from paper PMC12372887, “Mechanism and cellular actions of the potent AMPK inhibitor BAY-3827” (Science Advances, 2025).

Entries after “also recorded” stand apart in the source; their conditions may differ.

In test [1] the test system is AMPKα1α2+/+ control primary hepatocytes. Put plainly: Lipogenesis assay ([14C]-acetate incorporation into fatty acids). It is filed as cell-based, mouse. The protocol:
(§1) Mouse hepatocytes were isolated by collagenase perfusion as previously described ([47]). Hepatocytes were seeded in medium Eagle-199 (MEM-199) (#41150, Thermo Fisher Scientific) containing penicillin G (100 U/ml), streptomycin (100 μg/ml), and 10% (v/v) fetal bovine serum (FBS). Hepatocytes were left for attachment (3 to 4 hours) and serum-starved overnight at 37°C with 5% CO2 in MEM-199 supplemented with penicillin G (100 U/ml), streptomycin (100 μg/ml), 10 nM insulin, and 100 nM dexamethasone. […] Cells were then harvested in 0.5 ml of phosphate-buffered saline (PBS), transferred into 1 ml of 40% KOH and 2 ml of methanol followed by 1-hour incubation at 80°C. Lipids were […] by acidifying the samples in 37% HCl and extracted with petroleum ether. Extracts were allowed to evaporate to dryness and then dissolved in Ultima Gold scintillation fluid for determination of [^14C]-acetate incorporation into lipids.

Test [2] concerns mouse primary hepatocytes. Description: Immunoblot of AMPK signaling in primary hepatocytes. It counts as cell-based. On the procedure:
as §1
Following compound treatment, the cells were washed with room temperature PBS and lysed on ice with the addition of lysis buffer [50 mM tris-HCl (pH 7.5), 150 mM NaCl, 1 mM EDTA, 1 mM EGTA, 0.27 M sucrose, 1% w/v Triton X-100, 20 mM glycerol-2 phosphate disodium, 50 mM NaF, and 5 mM Na4P2O7.10 H2O] containing proteases and phosphatase inhibitors [0.5 mM phenylmethylsulfonyl fluoride (PMSF), 1 mM benzamidine HCl, leupeptin (1 μg/ml), pepstatin A (1 μg/ml), 1 μM microcystin-LR, 1 mM Na3VO4, and 1 mM DTT]. Lysates were centrifuged at 10,000g, 4°C for 10 min, and protein concentration of the supernatant was determined with the Pierce Bradford Protein Assay Kit (Thermo Fisher Scientific, #23200) and read on the Hidex Plate Reader (software version 0.5.64.0). Samples were prepared in Laemmli sample buffer (tris 200 mM, 8% SDS, EDTA 2 mM, and 40% glycerol) supplemented with 10% DTT and boiled for 5 min at 100°C. Ten micrograms of protein per sample was run on a Criterion tris-glycine polyacrylamide gel (Bio-Rad, #5678095) and transferred to a nitrocellulose membrane. For cell signaling experiments in HEK293 cells, the samples were run on a Criterion TGX stain-free precast gel (Bio-Rad, catalog no. 5678085) with transfer to a polyvinylidene difluoride membrane performed in Bio-Rad Criterion blotter (#1704071) using tris-glycine transfer buffer (Bio-Rad, #1610734) following the manufacturer’s instructions. […]
(In general: A western blot detects proteins with antibodies after separation by electrophoresis.)

[3] abbreviates: in the presence of MK-8722 (10 μM).

In the case of `CCc1ccccc1C(=O)Nc1n[nH]c2c(C)c(F)c(C3C(C#N)=C(C)N(C)C(C)=C3C#N)cc12` [BAY-3827, N-[5-(3,5-dicyano-1,2,6-trimethyl-4H-pyridin-4-yl)-6-fluoro-7-methyl-1H-indazol-3-yl]-2-ethylbenzamide], the “rescue of MK-8722–mediated inhibition of lipogenesis” value in test [1] (2.5 and 5 μM, + MK-8722 (10 μM)) is recorded as “dose-dependently rescued; also recorded: fully reversing”. The compound also registered a stimulation of lipogenesis in test [1] (compound alone, 2.5 and 5 μM) of 70 to 90%. In test [2] (setting [3]), the “concentration giving full inhibition of ACC1 phosphorylation” value came to 5 µM and the “concentration giving full inhibition of Raptor phosphorylation” value came to 2.5 µM. The “increased pThr172AMPK levels” value in test [2] (with or without MK-8722 (10 μM)) was “only significant under MK-8722–treated conditions at 5 μM”.
Turning to `CC1=C(C#N)C(c2ccc3c(c2)c(NC(=O)c2ccccc2C)nn3C)C(C#N)=C(C)N1` [BAY-974, N-[5-(3,5-dicyano-2,6-dimethyl-1,4-dihydropyridin-4-yl)-1-methylindazol-3-yl]-2-methylbenzamide], the effect on lipogenesis entry in test [1] (5 μM, vehicle- and MK-8722–treated conditions) is listed as “no effect”. In addition, the “levels of pACC1, pRaptor, or pAMPK” value in test [2] (5 μM, with or without MK-8722) is reported as “no effect”.
